Like-named read-outs stand apart in the source and are kept apart here.
Experiment: Mouse blood and tissue PK (LC/MS-MS)
Type: in vivo
Conditions: for Kp: tumor relative to whole blood
Procedure: For single-dose PKPD study, mice were randomized and assigned into groups (n = 3/dose/time point). […] Blood and tissues, including the tumor, brain, colon, ear skin, and muscle, were harvested at indicated time points. […] The whole blood, tumor, brain, colon, and ear skin concentrations of RMC-6236 were determined using liquid chromatography–tandem mass spectrometry (LC/MS-MS) methods. […] After thorough mixing and centrifugation, the supernatant was diluted with water or directly analyzed on a Sciex 5500 or Sciex 6500+ triple quadrupole mass spectrometer equipped with an ACQUITY or Shimadzu UPLC system. […] Bioanalysis on blood and tissue samples from xenograft models was run at Pharmaron and Wuxi AppTec. Concentrations reported as below the quantification limit were treated as zero for PK analysis. PK parameters were calculated by noncompartmental analysis of the concentration–time profiles using Phoenix WinNonLin (version 8.3 Certara). Apparent terminal elimination half-life (t1/2) values were calculated as ln(2)/k, where k represents the terminal elimination rate constant. Area under the concentration–time curve (AUC) values were estimated using a linear trapezoidal method. AUClast values were calculated from the dosing time to the last quantifiable concentration. Maximum concentration (Cmax) was recorded as observed.

[1] = NCI-H2122 (25 mg/kg), single dose

CCn1c(-c2cc(N3CCN(C)CC3)cnc2[C@H](C)OC)c2c3cc(ccc31)-c1csc(n1)C[C@H](NC(=O)[C@H]1C[C@@H]1C)C(=O)N1CCC[C@H](N1)C(=O)OCC(C)(C)C2 [RMC-6236]
Tumor AUClast [1]: 50057 ng·h/mL | Tumor Cmax [1]: 3350 ng/mL | Brain Cmax (Naïve Mice #1 (10 mg/kg), single dose): 25 ng/mL | Brain Cmax (Naïve Mice #1 (50 mg/kg), single dose): 161 ng/mL | concentration at 4 h (mouse, ear skin, oral, 25 mg/kg, sheet Ear Skin, model KP-4, study KP-4 #5, 25 mg/kg, read-out: RMC-6236 (nM) Tumor): 2790 nM | concentration at 8 h (mouse, ear skin, oral, 25 mg/kg, sheet Ear Skin, model KP-4, study KP-4 #5, 25 mg/kg, 8h, read-out: RMC-6236 (nM) Tumor): 1610 nM | concentration at 48 h (mouse, ear skin, oral, 25 mg/kg, sheet Ear Skin, model KP-4, study KP-4 #5, 25 mg/kg, 48h, read-out: RMC-6236 (nM) Tumor): 221 nM | Kp (mouse, oral, 3 mg/kg, NCI-H441 (3 mg/kg), single dose, read-out: Tumor/Blood AUC Ratio): 5.4 | Kp (mouse, oral, 10 mg/kg, NCI-H441 (10 mg/kg), single dose, read-out: Tumor/Blood AUC Ratio): 4.6 | Kp (mouse, oral, 25 mg/kg, HPAC (25 mg/kg), single dose, read-out: Tumor/Blood AUC Ratio): 6.6 | Kp (mouse, oral, 25 mg/kg, KP-4 (25 mg/kg), single dose, read-out: Tumor/Blood AUC Ratio): 6.4 | Kp (mouse, oral, 25 mg/kg, NCI-H358 (25 mg/kg), single dose, read-out: Tumor/Blood AUC Ratio): 5.9 | Kp (mouse, oral, 25 mg/kg, NCI-H441 #2 (25 mg/kg), QD x 10 days, read-out: Tumor/Blood AUC Ratio): 4.9 | Kp (mouse, oral, 25 mg/kg, NCI-H441 (25 mg/kg), single dose, read-out: Tumor/Blood AUC Ratio): 6.1 | Kp (mouse, oral, 25 mg/kg, NCI-H2122 (25 mg/kg), single dose, read-out: Tumor/Blood AUC Ratio): 6.3 | Kp (mouse, oral, various xenograft tumors, read-out: exposure in xenograft tumors relative to blood): 3 to 7 | concentration at 8 h (mouse, tumor, oral, 0.3 mg/kg, HPAC #11, 0.3 mg/kg, 8h, individual animals, read-out: RMC-6236 (nM) Tumor): 37 nM | concentration at 24 h (mouse, tumor, oral, 0.3 mg/kg, NCI-H441 xenograft tumor, study NCI-H441#10, 0.3 mg/kg, 24h, read-out: RMC-6236 (nM) Tumor): 36.8 nM | concentration at 8 h (mouse, tumor, oral, 0.3 mg/kg, NCI-H441 xenograft tumor, study NCI-H441#13, 0.3 mg/kg, 8h, read-out: RMC-6236 (nM) Tumor): 89.5 nM | concentration at 8 h (mouse, tumor, oral, 1 mg/kg, HPAC #11, 1 mg/kg, 8h, individual animals, read-out: RMC-6236 (nM) Tumor): 216 nM | concentration at 8 h (mouse, tumor, oral, 1 mg/kg, NCI-H441 xenograft tumor, study NCI-H441#10, 1 mg/kg, 8h, read-out: RMC-6236 (nM) Tumor): 129 nM | concentration at 8 h (mouse, tumor, oral, 1 mg/kg, NCI-H441 xenograft tumor, study NCI-H441#13, 1 mg/kg, 8h, read-out: RMC-6236 (nM) Tumor): 114 nM | concentration at 24 h (mouse, tumor, oral, 1 mg/kg, NCI-H441 xenograft tumor, study NCI-H441#13, 1 mg/kg, 24h, read-out: RMC-6236 (nM) Tumor): 53.2 nM | concentration at 8 h (mouse, tumor, oral, 3 mg/kg, HPAC #4, 3 mg/kg, 8h, individual animals, read-out: RMC-6236 (nM) Tumor): 245 nM | concentration at 24 h (mouse, tumor, oral, 3 mg/kg, HPAC #4, 3 mg/kg, 24h, individual animals, read-out: RMC-6236 (nM) Tumor): 205 nM | concentration at 48 h (mouse, tumor, oral, 3 mg/kg, HPAC #4, 3 mg/kg, 48h, individual animals, read-out: RMC-6236 (nM) Tumor): 31.9 nM | concentration at 4 h (mouse, tumor, oral, 3 mg/kg, KP-4, study KP-4 #6, 3 mg/kg, read-out: RMC-6236 (nM) Tumor): 264 nM | concentration at 8 h (mouse, tumor, oral, 3 mg/kg, KP-4, study KP-4 #6, 3 mg/kg, 8h, read-out: RMC-6236 (nM) Tumor): 340 nM | concentration at 12 h (mouse, tumor, oral, 3 mg/kg, KP-4, study KP-4 #6, 3 mg/kg, 12h, read-out: RMC-6236 (nM) Tumor): 298 nM | concentration at 48 h (mouse, tumor, oral, 3 mg/kg, KP-4, study KP-4 #6, 3 mg/kg, 48h, read-out: RMC-6236 (nM) Tumor): 29 nM | concentration at 24 h (mouse, tumor, oral, 3 mg/kg, NCI-H441 xenograft tumor, study NCI-H441#6, 3 mg/kg, 24h, read-out: RMC-6236 (nM) Tumor): 159 nM | concentration at 48 h (mouse, tumor, oral, 3 mg/kg, NCI-H441 xenograft tumor, study NCI-H441#6, 3 mg/kg, 48h, read-out: RMC-6236 (nM) Tumor): 63 nM | concentration at 4 h (mouse, tumor, oral, 10 mg/kg, HPAC #4, 10 mg/kg, individual animals, read-out: RMC-6236 (nM) Tumor): 817 nM | concentration at 8 h (mouse, tumor, oral, 10 mg/kg, HPAC #4, 10 mg/kg, 8h, individual animals, read-out: RMC-6236 (nM) Tumor): 1230 nM | concentration at 24 h (mouse, tumor, oral, 10 mg/kg, HPAC #4, 10 mg/kg, 24h, individual animals, read-out: RMC-6236 (nM) Tumor): 300 nM | concentration at 48 h (mouse, tumor, oral, 10 mg/kg, HPAC #4, 10 mg/kg, 48h, individual animals, read-out: RMC-6236 (nM) Tumor): 128 nM | concentration at 48 h (mouse, tumor, oral, 10 mg/kg, KP-4, study KP-4 #6, 10 mg/kg, 48h, read-out: RMC-6236 (nM) Tumor): 235 nM | concentration at 1 h (mouse, tumor, oral, 10 mg/kg, Model Validation Dataset, 10mg/kg_study6, 1 h, read-out: Tumor Concentration): 340 nM | concentration at 8 h (mouse, tumor, oral, 10 mg/kg, Model Validation Dataset, 10mg/kg_study6, 8 h, read-out: Tumor Concentration): 1010 nM | concentration at 24 h (mouse, tumor, oral, 10 mg/kg, Model Validation Dataset, 10mg/kg_study6, 24 h, read-out: Tumor Concentration): 353 nM | concentration at 48 h (mouse, tumor, oral, 10 mg/kg, Model Validation Dataset, 10mg/kg_study6, 48 h, read-out: Tumor Concentration): 214 nM | concentration at 8 h (mouse, tumor, oral, 10 mg/kg, NCI-H441 xenograft tumor, study NCI-H441#6, 10 mg/kg, 8h, read-out: RMC-6236 (nM) Tumor): 904 nM | concentration at 24 h (mouse, tumor, oral, 10 mg/kg, NCI-H441 xenograft tumor, study NCI-H441#6, 10 mg/kg, 24h, read-out: RMC-6236 (nM) Tumor): 519 nM | concentration at 48 h (mouse, tumor, oral, 10 mg/kg, NCI-H441 xenograft tumor, study NCI-H441#6, 10 mg/kg, 48h, read-out: RMC-6236 (nM) Tumor): 213 nM | concentration at 8 h (mouse, tumor, oral, 10 mg/kg, NCI-H441 xenograft tumor, study NCI-H441#10, 10 mg/kg, 8h, read-out: RMC-6236 (nM) Tumor): 685 nM | concentration at 24 h (mouse, tumor, oral, 10 mg/kg, NCI-H441 xenograft tumor, study NCI-H441#10, 10 mg/kg, 24h, read-out: RMC-6236 (nM) Tumor): 541 nM | concentration at 48 h (mouse, tumor, oral, 10 mg/kg, NCI-H441 xenograft tumor, study NCI-H441#10, 10 mg/kg, 48h, read-out: RMC-6236 (nM) Tumor): 153 nM

Reference: paper PMC11149917, “Translational and Therapeutic Evaluation of RAS-GTP Inhibition by RMC-6236 in RAS-Driven Cancers” (Cancer Discovery, 2024)
